Data set [1] has as its target T1, KV1.3 (Homo sapiens, UniProt P22001).
T1 construct: expressed in transfected cells; host or cells: HEK293T and CHO cells
Put plainly: Whole-cell patch-clamp, KV1.3. In kind it is cell-based. Conditions: whole-cell recording, HEK293T and CHO cells transfected, 1000-ms depolarizing pulse of 10 mV from −80 mV, pH 7.3, room temperature, Hill fit. How it is done: (§1) HEK293T and CHO cells were cultured as described in our previous work. The plasmid DNA (5μL, 1 μg/μL) of KV1.3 and KV7.4 channel was mixed with lipofectamine at a ratio of 1:1 in 200 μL Opti-MEM for 15–20 min, and the mixture was transferred to the cells plated in 20 mm cell culture dish for 12 h. After 24 h transfections, electrophysiological experiments were carried out at room temperature.
(§2) The cells expressing KV1.3 and KV7.4 were digested and plated on glass coverslips before current recording. The HEKA EPC10 amplifier (HEKA Elektronik, Ludwigshafen, Germany) was used to record currents in whole cells under the control of PATCHMASTER software (HEKA Elektronik, Ludwigshafen, Germany). A thin-wall borosilicate glass (A-M Systems) was used to pull patch pipettes and then the pipettes were fire-polished to 3–4 megohm. For whole-cell recordings, the capacity current was minimized by amplifier circuitry, and the series resistance was compensated by 30% to 65%. For KV1.3 and KV7.4 channel, intracellular solution contained 140 mM KCl, 10 mM EGTA, 2 mM MgCl2, 1 mM CaCl2, 10 mM HEPES (pH 7.3, adjusted with KOH), and extracellular solution contained 150 mM NaCl, 0.5 mM CaCl2, 5 mM KCl, 1.2 mM MgCl2, 10 mM HEPES (pH 7.3, adjusted with NaOH), and the current traces were tested by a 1000-ms depolarizing pulse of 10 mV from a holding voltage of −80 mV. The Hill logistic equation shown below was used to fit the Dose–response curves:y = 1 − (1 − fmax)/[1 + ([Tx]/IC50) n](1) where n is an empirical Hill coefficient, and fmax is the fraction of current resistant to inhibition at high toxin (Tx) concentration.
For orientation: Patch clamp records ionic current or voltage across a cell membrane.

Data set [2] addresses T2, KV7.4 (Homo sapiens, UniProt P56696).
T2 construct: expressed in transfected cells; host or cells: HEK293T and CHO cells
Put plainly: Whole-cell patch-clamp, KV7.4. The data set is classed as cell-based. Conditions: whole-cell recording, HEK293T and CHO cells transfected; 1000-ms depolarizing pulse of 10 mV from −80 mV; pH 7.3; room temperature; Hill fit; n = 5 cells. The procedure:
as §1
as §2, with “The Hill logistic equation shown below was used to fit the Dose–response curves:y = 1 − (1 − fmax)/[1 + ([Tx]/IC50) n](1) where n is an empirical Hill coefficient, and fmax is the fraction of current resistant to inhibition at high toxin (Tx) concentration.” left out

The conditions of data set [3]: ref [8]; cited from earlier work. The text has this:
With over 3000 species, centipedes, arthropods of the class Chilopoda are widely distributed in both tropical and subtropical regions. Their first pair of legs have been modified into strong mandibles and venomous fangs called forcipules that play a critical role in defense and predation. Centipede stings occur frequently in areas, such as Hawaii, Brazil, Australia, Taiwan, and Japan, evoking an issue of social health care. Centipede toxins are composite mixtures, which are responsible for both local and systemic reactions. Recently, we have identified and characterized several pep ...

[4] abbreviates: n = 5 cells, read-out: IC50 on KV1.3 (mutants).

The values that follow come from publication PMC6409716, “Centipede KCNQ Inhibitor SsTx Also Targets KV1.3” (Toxins, 2019).

Read-outs that look alike come from different tables or passages of the source. Bridges are numbered along the chain shown (N, C = ends). Where no end group is shown, it is not given here.

T1 sequence (P22001 whole entry): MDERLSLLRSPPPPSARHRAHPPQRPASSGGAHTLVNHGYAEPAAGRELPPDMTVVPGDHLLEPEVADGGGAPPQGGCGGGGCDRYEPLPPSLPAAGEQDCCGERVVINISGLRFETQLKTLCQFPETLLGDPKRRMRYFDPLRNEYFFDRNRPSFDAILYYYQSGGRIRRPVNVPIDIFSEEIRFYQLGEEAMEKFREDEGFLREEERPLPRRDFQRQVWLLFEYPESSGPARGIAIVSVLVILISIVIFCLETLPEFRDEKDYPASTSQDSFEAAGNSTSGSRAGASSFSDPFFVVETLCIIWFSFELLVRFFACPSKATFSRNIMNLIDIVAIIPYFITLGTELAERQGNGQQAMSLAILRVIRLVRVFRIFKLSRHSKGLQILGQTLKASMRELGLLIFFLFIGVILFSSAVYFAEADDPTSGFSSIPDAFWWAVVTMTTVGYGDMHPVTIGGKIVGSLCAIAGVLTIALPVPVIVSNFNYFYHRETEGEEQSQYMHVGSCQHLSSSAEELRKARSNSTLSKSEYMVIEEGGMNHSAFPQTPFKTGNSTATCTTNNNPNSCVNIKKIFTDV
T2 sequence (P56696 whole entry): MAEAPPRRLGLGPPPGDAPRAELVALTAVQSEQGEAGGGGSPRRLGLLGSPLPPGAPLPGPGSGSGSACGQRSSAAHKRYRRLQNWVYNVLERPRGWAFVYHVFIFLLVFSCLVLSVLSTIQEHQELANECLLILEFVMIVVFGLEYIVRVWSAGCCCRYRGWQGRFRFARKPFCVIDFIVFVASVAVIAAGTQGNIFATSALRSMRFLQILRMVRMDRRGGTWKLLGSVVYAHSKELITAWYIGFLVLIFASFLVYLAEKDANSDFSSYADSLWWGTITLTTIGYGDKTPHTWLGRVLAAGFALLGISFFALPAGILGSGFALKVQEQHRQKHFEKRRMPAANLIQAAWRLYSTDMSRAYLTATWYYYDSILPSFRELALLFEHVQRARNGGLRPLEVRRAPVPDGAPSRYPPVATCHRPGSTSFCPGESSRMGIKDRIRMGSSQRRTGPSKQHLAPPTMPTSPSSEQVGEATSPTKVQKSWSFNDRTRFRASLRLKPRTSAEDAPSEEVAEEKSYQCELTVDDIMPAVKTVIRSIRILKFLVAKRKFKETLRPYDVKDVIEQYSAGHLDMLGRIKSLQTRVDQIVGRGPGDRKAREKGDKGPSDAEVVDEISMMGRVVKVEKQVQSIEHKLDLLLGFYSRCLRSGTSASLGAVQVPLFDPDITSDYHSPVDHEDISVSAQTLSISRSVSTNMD

As for “EVIKKDTPYKARKFPYKSECLKACATSFTGGDESRIQEGKPGFFKCTCYFTTG (disulfide 20-46, 24-48) [SsTx_K11A]”, the 50% inhibitory concentration (IC50) (usually the midpoint of a concentration-inhibition curve) in data set [1] (setting [4]) was 507 ± 0.61 µM.

On to “EVIKKDTPYKKAKFPYKSECLKACATSFTGGDESRIQEGKPGFFKCTCYFTTG (disulfide 20-46, 24-48) [SsTx_R12A]”, for which the IC50 in data set [1] (setting [4]) worked out at 22.23 ± 0.22 µM.

Take “EVIKKDTPYKKRAFPYKSECLKACATSFTGGDESRIQEGKPGFFKCTCYFTTG (disulfide 20-46, 24-48) [SsTx_K13A]”: the IC50 in data set [1] (setting [4]) is 526.1 ± 0.48 µM.

Regarding “EVIKKDTPYKKRKFPYKSECLKACATSFTGGDESRIQEGKPGFFKCTCYFTTG (disulfide 20-46, 24-48) [SsTx, Ssm Spooky Toxin]”, the concentration for half-maximal inhibition (IC50) in data set [2] was 2.8 ± 0.23 µM; in data set [1] (n = 10 cells, read-out: IC50 on KV1.3), 5.26 µM. The lethal toxicity result in data set [3] is “potent lethal toxicity by causing severe vessels and respiratory disorders or seizures”.
